{"source": "patent US20240299422A1", "about": "“Topical Cannabinoid Compositions and Methods for Treating Skin Diseases” (Avicanna Inc., priority 2021, published 2024)", "assay": "Plasma profile of CBD after topical application in rats", "format": "in vivo, Sprague Dawley Rats", "description": "12 Female Sprague Dawley Rats (150-200 g) were purchased from Charles River Laboratories (Wilmington, MA). Rats were allowed to acclimatise for one week prior to commencement of the study.\nAt day 0, rats were anaesthetised using 3% isoflurane via inhalation. The skin on the dorsal side of the rats was shaved and a circular area of approximately 18.09 cm^2 was marked onto the surface of the skin. Twice daily, cream was applied to the dorsal surface of the skin using a 1 ml syringe that was prefilled with the composition described in Example 1 at a dose of 15 mg/kg of cannabidiol (CBD). Following the application of the cream and in order to prevent the cream from being removed, dermal application jackets were applied to each of the rats. These were maintained on the animals for the duration of the study (i.e. 7 days). Every 24 hours, blood was collected by puncturing the saphenous vein with a 20 G needle. At each time point, approximately 200 μL of blood was collected into Microvette™ 200 ZGel collection tubes (Sarstedt). Blood samples were centrifuged at 1.5×104 RPM for 5 mins. Following this, plasma was isolated and stored at −80° C. until the end of the study when all samples were analysed simultaneously. […]\nPlasma (20 μL) was added to a 1:1 (v/v) solution of acetonitrile:ethyl acetate at a ratio of 1:10 (plasma:organic solvent). […] The samples were reconstituted with LC-MS grade methanol prior to analysed by mass spectrometry.\nLC analyses were performed on an Agilent 1260 LC infinity system consisting of a binary pump, a thermostated autosampler and a thermostated column compartment (Agilent, Waldbronn, Germany). Samples were analyzed on an Agilent Poroshell 120 C18 column (150×2.1 mm; 1.9 μm particle size) (Agilent, Waldbronn, Germany). […]\nTandem mass spectrometry was performed using a TSQ Endura™ Triple Quadrupole Mass Spectrometer (Thermo Fisher Scientific, Waltham, MA) operating in electrospray ionization (ESI). Xcalibur software (Thermo Fisher Scientific) was used for instrument control, data acquisition, qualitative and quantitative data analyses. […]"}
{"smiles": "C=C(C)[C@@H]1CCC(C)=C[C@H]1c1c(O)cc(CCCCC)cc1O", "note": "[CBD, cannabidiol]", "values": [{"measurement": "Time of peak plasma concentration", "setting": "topical composition of Example 1, 15 mg/kg CBD twice daily for 7 days, female rats", "result": 96, "unit": "h"}, {"measurement": "Peak plasma concentration of CBD", "setting": "topical composition of Example 1, 15 mg/kg CBD twice daily for 7 days, female rats, n=12", "result": "21.08 ± 3.54", "unit": "ng/mL"}, {"measurement": "Plasma concentration of CBD by 168 h", "setting": "topical composition of Example 1, 15 mg/kg twice daily, LOQ of LC-MS method 5 ng/ml", "result": "below the LOQ"}]}
